Laboratory results: ChEMBL document CHEMBL3885861, “Open TG-GATES”

Organism: Rattus norvegicus
Test: Open TG-GATES - Regimen: Daily Repeat
Format: toxicity, organism-based, Sprague-Dawley
Set-up: regimen Daily Repeat, gender Male, age 6 weeks
Conditions: in vivo, po, 3 mg/kg, route gavage, dose level Low; for APTT / Bas / Eos / Fbg / Hb / Ht / Lym / MCH / MCHC / MCV / Mono / Neu / PT / Plat / RBC / Ret / WBC: tissue Blood; for KIDNEY_L / KIDNEY_R / KIDNEY_TOTAL: tissue Kidney; for LIVER: tissue Liver; for A/G / ALP / ALT / AST / BUN / CRE / Ca / Cl / DBIL / GLC / IP / K / LDH / Na / PL / RALB / TBIL / TC / TG / TP / gamma-GTP: tissue Plasma

## Cn1cnc([N+](=O)[O-])c1Sc1ncnc2nc[nH]c12 [AZATHIOPRINE]
72 h, time 3 day
  TERMINAL_BW: 215.2 g
  APTT: 20.9 s
  Bas: 0%
  Eos: 0.4%
  Fbg: 312.4 mg/dL
  Hb: 13 g/dL
  Ht: 38.6%
  Lym: 83.6%
  MCH: 22 pg
  MCHC: 33.6%
  MCV: 65.4 fL
  Mono: 1.8%
  Neu: 13%
  PT: 16.2 s
  Plat: 125.6 x10_4/uL
  RBC: 590 x10_4/ul
  Ret: 7.5%
  WBC: 81.3 x10_2/uL
  KIDNEY_L: 1 g
  KIDNEY_R: 1 g
  KIDNEY_TOTAL: 1.9 g
  LIVER: 10.5 g
  A/G: 1.3
  ALP: 1666 IU/L
  ALT: 45 IU/L
  AST: 73.2 IU/L
  BUN: 17.6 mg/dL
  CRE: 0.1 mg/dL
  Ca: 11.3 mg/dL
  Cl: 106.6 meq/L
  DBIL: 0 mg/dL
  GLC: 188.8 mg/dL
  IP: 6.7 mg/dL
  K: 4.4 meq/L
  LDH: 192.8 IU/L
  Na: 143.4 meq/L
  PL: 142.8 mg/dL
  RALB: 3.1 g/dL
  TBIL: 0.008 mg/dL
  TC: 73.8 mg/dL
  TG: 85 mg/dL
  TP: 5.6 g/dL
  gamma-GTP: 1 IU/L
[…], time 7 day
  TERMINAL_BW: 233.9 g
  APTT: 21.4 s
  Bas: 0%
  Eos: 1%
  Fbg: 312.6 mg/dL
  Hb: 14 g/dL
  Ht: 40.2%
  Lym: 79%
  MCH: 21.4 pg
  MCHC: 34.9%
  MCV: 61.3 fL
  Mono: 2.2%
  Neu: 17%
  PT: 15.8 s
  Plat: 115.5 x10_4/uL
  RBC: 655.8 x10_4/ul
  Ret: 5.5%
  WBC: 121.2 x10_2/uL
  KIDNEY_L: 1 g
  KIDNEY_R: 1 g
  KIDNEY_TOTAL: 2 g
  LIVER: 10.6 g
  A/G: 1.2
  ALP: 1762.2 IU/L
  ALT: 44.2 IU/L
  AST: 71.2 IU/L
  BUN: 19.8 mg/dL
  CRE: 0.1 mg/dL
  Ca: 10.5 mg/dL
  Cl: 107.6 meq/L
  DBIL: 0 mg/dL
  GLC: 201 mg/dL
  IP: 7 mg/dL
  K: 4.1 meq/L
  LDH: 232 IU/L
  Na: 143.2 meq/L
  PL: 151.2 mg/dL
  RALB: 3.1 g/dL
  TBIL: 0.006 mg/dL
  TC: 74.8 mg/dL
  TG: 117.4 mg/dL
  TP: 5.7 g/dL
  gamma-GTP: 1.2 IU/L
[…], time 14 day
  TERMINAL_BW: 269.8 g
  APTT: 22.5 s
  Bas: 0%
  Eos: 0.8%
  Fbg: 325.2 mg/dL
  Hb: 14.6 g/dL
  Ht: 41%
  Lym: 77.4%
  MCH: 21.4 pg
  MCHC: 35.7%
  MCV: 59.9 fL
  Mono: 1.8%
  Neu: 19%
  PT: 16.3 s
  Plat: 113.2 x10_4/uL
  RBC: 684.8 x10_4/ul
  Ret: 3.6%
  WBC: 82.1 x10_2/uL
  KIDNEY_L: 1.1 g
  KIDNEY_R: 1.1 g
  KIDNEY_TOTAL: 2.2 g
  LIVER: 11.4 g
  A/G: 1.1
  ALP: 1472 IU/L
  ALT: 34.6 IU/L
  AST: 61.4 IU/L
  BUN: 17.4 mg/dL
  CRE: 0.2 mg/dL
  Ca: 10.7 mg/dL
  Cl: 108 meq/L
  DBIL: 0 mg/dL
  GLC: 185.4 mg/dL
  IP: 6.1 mg/dL
  K: 4.2 meq/L
  LDH: 145 IU/L
  Na: 143.8 meq/L
  PL: 143.2 mg/dL
  RALB: 3.1 g/dL
  TBIL: 0.006 mg/dL
  TC: 74.2 mg/dL
  TG: 116.2 mg/dL
  TP: 5.9 g/dL
  gamma-GTP: 1 IU/L
[…], time 28 day
  TERMINAL_BW: 343.6 g
  APTT: 24.6 s
  Bas: 0%
  Eos: 1%
  Fbg: 302.2 mg/dL
  Hb: 14.6 g/dL
  Ht: 42.3%
  Lym: 84.6%
  MCH: 19.4 pg
  MCHC: 34.4%
  MCV: 56.4 fL
  Mono: 1.6%
  Neu: 12%
  PT: 16.5 s
  Plat: 116.9 x10_4/uL
  RBC: 749.8 x10_4/ul
  Ret: 2.7%
  WBC: 116.8 x10_2/uL
  KIDNEY_L: 1.3 g
  KIDNEY_R: 1.3 g
  KIDNEY_TOTAL: 2.5 g
  LIVER: 14.1 g
  A/G: 1.1
  ALP: 1129.8 IU/L
  ALT: 46.2 IU/L
  AST: 71.2 IU/L
  BUN: 19.2 mg/dL
  CRE: 0.2 mg/dL
  Ca: 10.6 mg/dL
  Cl: 107.8 meq/L
  DBIL: 0.002 mg/dL
  GLC: 185 mg/dL
  IP: 5.6 mg/dL
  K: 3.9 meq/L
  LDH: 181 IU/L
  Na: 141.8 meq/L
  PL: 156.8 mg/dL
  RALB: 3.2 g/dL
  TBIL: 0.01 mg/dL
  TC: 79 mg/dL
  TG: 110.6 mg/dL
  TP: 6.1 g/dL
  gamma-GTP: 1.2 IU/L
